In patent publication US10030016B2 (Sunesis Pharmaceuticals, Inc., priority 2009, dated 2018):
Where a name gives a salt, the structure may show the parent alone. Read-outs that look alike come from different tables or passages of the source. Blank lines part the entries; values can stand above or below the compound they belong to.

Tests used:
[1] = target: PDK1 (Homo sapiens (Human), UniProt O15530); assay: PDK1 kinase assay (coupled PDK1/AKT/FAM-crosstide assay, IMAP fluorescence polarization); format: biochemical
PDK1, sequence (O15530 51-359): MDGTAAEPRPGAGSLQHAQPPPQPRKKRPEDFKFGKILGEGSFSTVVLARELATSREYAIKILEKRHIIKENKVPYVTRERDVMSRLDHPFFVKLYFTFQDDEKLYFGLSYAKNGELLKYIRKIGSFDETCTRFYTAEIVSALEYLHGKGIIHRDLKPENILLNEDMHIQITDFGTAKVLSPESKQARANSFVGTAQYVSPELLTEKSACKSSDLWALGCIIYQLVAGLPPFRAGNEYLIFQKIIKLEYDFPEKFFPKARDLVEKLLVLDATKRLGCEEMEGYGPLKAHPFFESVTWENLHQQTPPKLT
How it was run: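 GST-tagged human PDK1 (aa 51-359, 0.75 nM) from insect cells activated unphosphorylated GST-AKT2 (aa 140-467–PIFtide fusion, 10 nM), which phosphorylated 100 nM FAM-crosstide; 40 μM ATP, pH 7.2 Tris/MgCl2, 30 min at 25° C. IMAP fluorescence polarization read-out; ΔmP versus compound concentration fitted with a 4-parameter curve.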

[2] = tested on: phospho-akt (Thr308) in PC-3 cells; assay: Inhibition of phospho-akt (Thr308) in PC-3 cells, MSD phospho-akt 308 ELISA kit; format: cell-based; details: 2 hours, no serum, read-out: EC50
How it was run: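 Electrochemiluminescent MSD ELISA of Thr308-phosphorylated Akt after a 2 h serum-free compound exposure of PC-3 cells (15,000/well, plated overnight). Controls: DMSO (high), 5 μM wortmannin (low). Lysate binding overnight at 4 °C; detection antibody 1 h at room temperature.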

[3] = Homo sapiens, inhibition of P308 Akt in PC-3 cells using MSD
[4] = inhibition of phospo-PDK1 in vitro
[5] = inhibition of P308 Akt in PC-3 cells, MSD
[6] = Homo sapiens, inhibition of P308 Akt in PC-3 cells, MSD

Structure (SMILES): Cn1cnc2cnc3ccc(-c4ccc(CNc5ncccc5C(=O)NCc5cncc(F)c5)s4)cc3c21 [Example 354, N-((5-fluoropyridin-3-yl)methyl)-2-((5-(1-methyl-1H-imidazo[4,5-c]quinolin-8-yl)thiophen-2-ylmethyl)amino)nicotinamide]
IC50 ([1]; inhibition of PDK1 in vitro): < 100 nM | EC50 [2, 3]: < 1000 nM

Structure (SMILES): C[C@H](NC(=O)c1cc(S(=O)(=O)N(C)C)cnc1NCc1ccc(-c2ccc3ncnc(N)c3c2)s1)c1ccc(F)c(F)c1 [Example 8.7.6, 2-({[5-(4-aminoquinazolin-6-yl)thiophen-2-yl]methyl}amino)-N-[(1S)-1-(3,4-difluorophenyl)ethyl]-5-(dimethylsulfamoyl) pyridine-3-carboxamide]
IC50 [1, 4]: < 100 nM | EC50 [2, 5]: < 1000 nM

Structure (SMILES): C[C@@H](Nc1ncc(C(F)(F)F)cc1C(=O)Nc1ccc(F)cc1)c1ccc(-c2cnc3[nH]nc(N)c3n2)cc1 [Example 412, 2-{(R)-1-[4-(3-Amino-1H-pyrazolo[3,4-b]pyrazin-5-yl)-phenyl]-ethylamino}-N-(4-fluoro-phenyl)-5-trifluoromethyl-nicotinamide]
IC50 ([1]; inhibition of PDK1 in vitro): < 100 nM | EC50 [2, 3]: 1000 to 10000 nM

Structure (SMILES): CCNS(=O)(=O)c1cnc(NCc2ccc(-c3ccc4ncnc(N)c4c3)s2)c(C(=O)NCc2ccc(F)c(F)c2)c1 [Example 8.7.11, 2-({[5-(4-aminoquinazolin-6-yl)thiophen-2-yl]methyl}amino)-N-(3,4-difluorobenzyl)-5-(ethylsulfamoyl)pyridine-3-carboxamide]
IC50 [1, 4]: 100 to 1000 nM | EC50 [2, 6]: < 1000 nM

Structure (SMILES): Nc1n[nH]c2ncc(-c3ccc(CNc4ncc(C(F)(F)F)cc4C(=O)NC4CCOC4)cc3)cc12 (stereo not shown) [Example 305, 2-(4-(3-amino-1H-pyrazolo [3,4-b]pyridin-5-yl)benzylamino)-N-(tetrahydrofuran-3-yl)-5-(trifluoromethyl)nicotinamide]
IC50 ([1]; inhibition of PDK1 in vitro): 100 to 1000 nM | EC50 [2, 3]: 1000 to 10000 nM

Structure (SMILES): CNC(=O)c1cc(S(=O)(=O)NCCCN(C)C)cnc1NCc1ccc(-c2ccc3ncnc(N)c3c2)s1 [Example 341]
IC50 ([1]; inhibition of PDK1 in vitro): > 5000 nM | EC50 [2, 3]: > 10000 nM

Continued, values first:

IC50 ([1]; inhibition of PDK1 in vitro): < 100 nM | EC50 [2, 3]: < 1000 nM
Structure (SMILES): C[C@H](NC(=O)c1nccnc1NCc1ccc(-c2cnc3[nH]c(=O)[nH]c3c2)cc1)c1ccc(F)cc1 [Example 357, (S)-N-(1-(4-fluorophenyl)ethyl)-3-(4-(2-oxo-2,3-dihydro-1H-imidazo[4,5-b]pyridin-6-yl)benzylamino) pyrazine-2-carboxamide]

IC50 ([1]; inhibition of PDK1 in vitro): < 100 nM | EC50 [2, 3]: 1000 to 10000 nM
Structure (SMILES): C[C@H](NC(=O)c1nc(C#N)cnc1NCc1ccc(-c2cn(CCN(C)C)c3ncnc(N)c23)cc1)c1ccc(F)c(F)c1 [Example 398, (S)-3-(4-(4-amino-7-(2-(dimethylamino)ethyl)-7H-pyrrolo[2,3-d]pyrimidin-5-yl)benzylamino)-6-cyano-N-(1-(3,4-difluorophenyl)ethyl)pyrazine-2-carboxamide]

IC50 ([1]; inhibition of PDK1 in vitro): < 100 nM | EC50 [2, 3]: < 1000 nM
Structure (SMILES): C[C@H](NC(=O)c1cc(C#N)cnc1NCc1ccc(-c2cnc3[nH]nc(N)c3c2)cc1)c1ccc(F)cc1 [Example 122, (S)-2-(4-(3-amino-1H-pyrazolo[3,4-b]pyridin-5-yl)benzylamino)-5-cyano-N-(1-(4-fluorophenyl)ethyl) nicotinamide]

IC50 [1, 4]: < 100 nM | EC50 [2, 5]: 1000 to 10000 nM
Structure (SMILES): C[C@H](NC(=O)c1cccnc1NCc1cccc(-c2c[nH]c3ncnc(N)c23)c1)c1ccc(F)cc1 [Example 2.29, (S)-2-(3-(4-amino-7H-pyrrolo[2,3-d]pyrimidin-5-yl)benzylamino)-N-(1-(4-fluorophenyl)ethyl) nicotinamide]

IC50 [1, 4]: < 100 nM | EC50 [2, 6]: < 1000 nM
Structure (SMILES): N#Cc1cnc(NCc2ccc(-c3ccc4ncnc(N)c4c3)s2)c(C(=O)NCc2ccc(F)cc2)n1 [Example 3.83, 3-(((5-(4-aminoquinazolin-6-yl)thiophen-2-yl)methyl)amino)-6-cyano-N-(4-fluorobenzyl)pyrazine-2-carboxamide (TFA salt)]
